# Source: ChEMBL document CHEMBL1124625, “Flavones. 2. Synthesis and structure-activity relationship of flavodilol and its analogues, a novel class of antihypertensive agents with catecholamine depleting properties” (J Med Chem, 1989)
# The source made the active and inactive calls. No cut-off for these calls is given here.
# Columns and labels:
# Rattus norvegicus [1] = assay: % decrease in heart norepinephrine in anesthetized spontaneously hypertensive rats(SHR) at 7 hours after administration of 150 mg/kg dose perorally;; assay type: functional; conditions: route oral
# Rattus norvegicus [2] = assay: Systolic blood pressure (SBP) in anesthetized spontaneously hypertensive rats(SHR) at 7.5 hours after administration of 35 mg/kg dose perorally; assay type: functional; conditions: route oral
# Rattus norvegicus [3] = assay: % decrease in brain norepinephrine in anesthetized spontaneously hypertensive rats(SHR) at 3 hours after administration of 150 mg/kg dose perorally; assay type: functional; conditions: route oral
# Rattus norvegicus [4] = assay: % decrease in adrenal epinephrine in anesthetized spontaneously hypertensive rats(SHR) at 24 hours after administration of 75 mg/kg dose perorally; assay type: functional; conditions: route oral
# Rattus norvegicus [5] = assay: % decrease in heart norepinephrine in anesthetized spontaneously hypertensive rats(SHR) at 3 hours after administration of 150 mg/kg dose perorally; assay type: functional; conditions: route oral
# Rattus norvegicus [6] = assay: Systolic blood pressure (SBP) in anesthetized spontaneously hypertensive rats(SHR) at 7.5 hours after administration of 17 mg/kg dose, perorally; percentage falls in systolic blood pressure were not statistically signific ant; assay type: functional, organism-based; design: dose 17 mg/kg; conditions: Artery
# Rattus norvegicus [7] = assay: % decrease in heart norepinephrine in anesthetized spontaneously hypertensive rats(SHR) at 24 hours after administration of 150 mg/kg dose perorally; assay type: functional; conditions: route oral
# Rattus norvegicus [8] = assay: % decrease in systolic blood pressure (SBP) in anesthetized spontaneously hypertensive rats(SHR) after administration of 75 mg/kg dose perorally; conditions: route oral
# Adrenergic receptor beta = Adrenergic receptor beta (Rattus norvegicus, UniProt P18090+P10608+P26255)
# Description: Inhibition constant from beta adrenergic receptor binding assay
# Cavia porcellus = organism: Cavia porcellus; assay: Inhibition of the isoproterenol response at a dose of 1 x 10e -4M in guinea pig; slight inhibition was found; assay type: functional, organism-based
# Rattus norvegicus [9] = assay: % decrease in adrenal epinephrine in anesthetized spontaneously hypertensive rats(SHR) at 24 hours after administration of 150 mg/kg dose perorally; assay type: functional; conditions: route oral
# Rattus norvegicus [10] = assay: % decrease in heart norepinephrine in anesthetized spontaneously hypertensive rats(SHR) at 1 hours after administration of 150 mg/kg dose perorally; assay type: functional; conditions: route oral
# Rattus norvegicus [11] = assay: % decrease in brain norepinephrine in anesthetized spontaneously hypertensive rats(SHR) at 24 hours after administration of 35 mg/kg dose perorally; assay type: functional; conditions: route oral
# Rattus norvegicus [12] = assay: % decrease in brain norepinephrine in anesthetized spontaneously hypertensive rats(SHR) at 24 hours after administration of 75 mg/kg dose perorally; assay type: functional; conditions: route oral
# Rattus norvegicus [13] = assay: % decrease in adrenal epinephrine in anesthetized spontaneously hypertensive rats(SHR) at 24 hours after administration of 35 mg/kg dose perorally; assay type: functional; conditions: route oral
# Rattus norvegicus [14] = assay: % decrease in adrenal epinephrine in anesthetized spontaneously hypertensive rats(SHR) at 3 hours after administration of 150 mg/kg dose perorally; assay type: functional; conditions: route oral
# Rattus norvegicus [15] = assay: % decrease in heart norepinephrine in anesthetized spontaneously hypertensive rats(SHR) at 24 hours after administration of 35 mg/kg dose perorally; value significantly different was control; assay type: functional; conditions: route oral
# Rattus norvegicus [16] = assay: % decrease in adrenal epinephrine in anesthetized spontaneously hypertensive rats(SHR) at 7 hours after administration of 150 mg/kg dose perorally; assay type: functional; conditions: route oral
# Rattus norvegicus [17] = assay: % decrease in heart norepinephrine in anesthetized spontaneously hypertensive rats(SHR) at 24 hours after administration of 75 mg/kg dose perorally; assay type: functional; conditions: route oral
# Rattus norvegicus [18] = assay: Systolic blood pressure (SBP) in anesthetized spontaneously hypertensive rats(SHR) at 7.5 hours after administration of 75 mg/kg dose perorally; assay type: functional; conditions: route oral
# Rattus norvegicus [19] = assay: % decrease in adrenal epinephrine in anesthetized spontaneously hypertensive rats(SHR) at 1 hours after administration of 150 mg/kg dose perorally; assay type: functional; conditions: route oral
# Rattus norvegicus [20] = assay: % decrease in systolic blood pressure (SBP) in anesthetized spontaneously hypertensive rats(SHR) after administration of 150 mg/kg dose perorally; conditions: route oral
# Rattus norvegicus [21] = assay: % decrease in brain norepinephrine in anesthetized spontaneously hypertensive rats(SHR) at 24 hours after administration of 150 mg/kg dose perorally; assay type: functional; conditions: route oral
# Rattus norvegicus [22] = assay: % decrease in brain norepinephrine in anesthetized spontaneously hypertensive rats(SHR) at 1 hours after administration of 150 mg/kg dose perorally; assay type: functional; conditions: route oral
# Rattus norvegicus [23] = assay: % decrease in brain norepinephrine in anesthetized spontaneously hypertensive rats(SHR) at 7 hours after administration of 150 mg/kg dose perorally; assay type: functional; conditions: route oral
# Rattus norvegicus [24] = assay: Systolic blood pressure (SBP) in anesthetized spontaneously hypertensive rats(SHR) before administration of 17 mg/kg dose perorally; assay type: functional; conditions: route oral
# Rattus norvegicus [25] = assay: Systolic blood pressure (SBP) in anesthetized spontaneously hypertensive rats (SHR) before administration of 75 mg/kg dose perorally.; assay type: functional; design: unit: mmHg; conditions: route oral
smiles,measurement,setting,value
CC(C)NCC(O)COc1ccc2c(=O)cc(-c3ccccc3)oc2c1 (configuration not stated),Decrease,Rattus norvegicus [1],100%
same,Decrease in Systolic blood pressure,Rattus norvegicus [2],21%
same,Decrease,Rattus norvegicus [3],2%
same,Decrease,Rattus norvegicus [4],23%
same,Decrease,Rattus norvegicus [5],71%
same,Decrease in Systolic blood pressure,Rattus norvegicus [6],inactive
same,Decrease,Rattus norvegicus [7],100%
same,% decrease SBP,Rattus norvegicus [8],16%
same,Ki,Adrenergic receptor beta,12 µM
same,Activity,Cavia porcellus,Weak activity
same,Decrease,Rattus norvegicus [9],39%
same,Decrease,Rattus norvegicus [10],40%
same,Decrease,Rattus norvegicus [11],-4%
same,Decrease,Rattus norvegicus [12],2%
same,Decrease,Rattus norvegicus [13],17%
same,Decrease,Rattus norvegicus [14],4%
same,Decrease,Rattus norvegicus [15],57%
same,Decrease,Rattus norvegicus [16],16%
same,Decrease,Rattus norvegicus [17],100%
same,Decrease in Systolic blood pressure,Rattus norvegicus [18],27%
same,Decrease,Rattus norvegicus [19],10%
same,% decrease SBP,Rattus norvegicus [20],33%
same,Decrease,Rattus norvegicus [21],14%
same,Decrease,Rattus norvegicus [22],0%
same,Decrease,Rattus norvegicus [23],10%
same,Systolic blood pressure,Rattus norvegicus [24],203
same,Systolic blood pressure,Rattus norvegicus [25],208
